From US11091815B2, “Integrated methods for treating lignocellulosic material” (VIRDIA, LLC, priority 2015, dated 2021)
Where two headings read alike, the source gives them in different places.

Assay: Partition coefficient in a two phase system of water and MEK
Type: physicochemical
Method: Water and methylethyl ketone (MEK) were shaken for several minutes to allow saturation of each phase. The phases were separated. An excess amount of fumaric acid was stirred at 40° C. in each phase for 5 hours in a closed container. A sample of the solution was diluted with water and filtered. The concentration of fumaric acid was determined by HPLC by injecting 1-20 μL onto a Bio-Rad Aminex HPX-87H 7.2 mm column, using 0.003 M H2SO4 as eluent, flow rate 0.6 mL/min, temperature 65° C., and an RI detector. The saturated solution was held in a thermostated bath at 25° C., 10° C., 4° C. and 0° C. and allowed to equilibrate at each temperature. A sample of each solution was taken, diluted with water and injected onto the HPLC to determine fumaric acid concentration. Similarly, excess amounts of fumaric acid and Ca(OH)2 were shaken with each phase and the concentration of fumaric acid determined by HPLC in a diluted, filtered sample.
An excess amount of fumaric acid was shaken overnight at 4° C. in a biphasic system of water and MEK. The fumaric acid concentration in each phase was determined by HPLC as described in Example 4. Similarly, excess amounts of both fumaric acid and calcium hydroxide were equilibrated with a biphasic system of water and MEK. The partition coefficient was calculated as:
[formula] K was determined to be 8.6 for fumaric acid and 0.5 for calcium fumarate.

SMILES | partition coefficient K (biphasic system of water and MEK, excess solid shaken overnight at 4° C., concentration in each phase by HPLC, calcium fumarate: excess fumaric acid and calcium hydroxide) | partition coefficient K
O=C([O-])/C=C/C(=O)[O-].[Ca+2] [calcium fumarate] | 0.5 | 
O=C(O)/C=C/C(=O)O [fumaric acid] |  | 8.6
